Assay results published in US8088936B2, “Leukotriene B4 inhibitors” (Hoffman-La Roche Inc., priority 2009, dated 2012).

System: Human leukemia HL-60 cells endogenously expressing BLT1 and BLT2 receptors
Assay: Ca2+ flux assay for LTB4 antagonist assay (HL-60 FLIPR)
Assay type: cell-based
Conditions: retinoic acid induced HL-60 cells, inhibition of LTB4-induced Ca2+ flux, 30 min preincubation; read-out: LTB4 antagonism (HL-60 FLIPR)
Method: Assay of Compounds for Inhibition of LTB4 Activity
Ca^2+Flux Assay for LTB4 Antagonist Assay
Human leukemia HL-60 cells endogenously expressing BLT1 and BLT2 receptors were cultured in RPMI-1640 medium supplemented with 20% fetal bovine serum, 2 mM glutamine, 100 U/ml penicillin and 100 ug/ml streptomycin.
Seventy two hours prior to experiment cells are counted using ViaCount reagent, centrifuged and resuspended at 2.0×10^5 cells/ml density with the complete growth media containing 1 μM Retinoic Acid (Sigma).
On a day of the experiment loading buffer (Calcium-3 Assay Kit, Molecular Devices) was prepared by dissolving the contents of one vial (Express Kit) into 500 ml Hank's Balanced Salt Solution containing 20 mM HEPES and 5 mM probenecid. Equal volume of the loading buffer was mixed with the replacement buffer (Hank's Balanced Salt Solution containing 20 mM HEPES, 0.05% BSA and 5 mM probenecid). Retinoic Acid induced HL-60 cells were counted using ViaCount reagent, centrifuged and resuspended at 2.0×10^6 cells/ml density with the loading buffer/replacement buffer, dispensed into 384 well black/clear microplates (Falcon) (25 μl/well) and placed in a 37° C./5% CO2 incubator for 1 hour.
During the incubation, test compounds were prepared at 6× the desired concentration in HBSS/20 mM HEPES/0.05% BSA as well as LTB4 (Biomol) was prepared at 2.2× concentration in HBSS/20 mM HEPES/0.5% BSA buffer.
After the incubation, both the cell and compound plates were brought to the FLIPR and 5 μl of the diluted compounds were transferred to the cell plates by the FLIPR. Plates were then incubated for 30 min at room temperature. After the ½ hour incubation, plates were returned to the FLIPR and 25 μl of 2.2×LTB4 was added to the cell plates. During the assay, fluorescence readings were taken simultaneously from all 384 wells of the cell plate every 1.5 seconds. Five readings were taken to establish a stable baseline, then 25 μl (LTB4) of sample was rapidly and simultaneously added to each well of the cell plate. The fluorescence was continuously monitored before, during and after sample addition for a total elapsed time of 100 seconds. Responses (increase in peak fluorescence) in each well following agonist addition was determined. The initial fluorescence reading from each well, prior to ligand stimulation, was used a zero baseline value for the data from that well. The responses are expressed as % inhibition of the neutral control (neural control: wells that received buffer plus DMSO but no test compound).

SMILES	IC50 [nM]
CN(C)Cc1cc(OCCCCCCc2cccc(OCCCC(=O)O)c2CCC(=O)O)cc(-c2ccc(Cl)cc2)c1 [Example 34, 4-{2-(2-Carboxy-ethyl)-3-[6-(4′-chloro-5-dimethylaminomethyl-biphenyl-3-yloxy)-hexyl]-phenoxy}-butyric acid]	0.24
O=C(O)CCCOc1cccc(CCCCCCOc2cc(OCc3ccccc3)cc(-c3ccsc3)c2)c1CCC(=O)O [Example 61, 4-[3-[6-(3-Benzyloxy-5-thiophen-3-yl-phenoxy)-hexyl]-2-(2-carboxy-ethyl)-phenoxy]-butyric acid]	77.7
O=C(O)CCCOc1cccc(CCCCCCOc2cc(OCc3ccccc3)cc(-c3cccc(F)c3)c2)c1CCC(=O)O [Example 59, 4-[3-[6-(5-Benzyloxy-3′-fluoro-biphenyl-3-yloxy)-hexyl]-2-(2-carboxy-ethyl)-phenoxy]-butyric acid]	132
COCc1cc(OCCCCCCc2cccc(OCCCC(=O)O)c2CCC(=O)O)cc(-c2ccc3c(c2)OCO3)c1 [Example 8, 4-[3-[6-(3-Benzo[1,3]dioxol-5-yl-5-methoxymethyl-phenoxy)-hexyl]-2-(2-carboxy-ethyl)-phenoxy]-butyric acid]	0.14
COCc1cc(OCCCCCCc2cccc(OCCCC(=O)O)c2CCC(=O)O)cc(-c2ccc(F)c(F)c2)c1 [Example 21, 4-[2-(2-Carboxy-ethyl)-3-[6-(3′,4′-difluoro-5-methoxymethyl-biphenyl-3-yloxy)-hexyl]-phenoxy]-butyric acid]	2.66
CC(=O)c1cc(OCCCCCCc2cccc(OCCCC(=O)O)c2CCC(=O)O)cc(-c2cccc(F)c2)c1 [Example 67, 4-[3-[6-(5-Acetyl-3′-fluoro-biphenyl-3-yloxy)-hexyl]-2-(2-carboxy-ethyl)-phenoxy]-butyric acid]	5.1
CCOc1cc(OCCCCCCc2cccc(OCCCC(=O)O)c2CCC(=O)O)cc(-c2ccc3c(c2)OCO3)c1 [Example 43, 4-[3-[6-(3-Benzo[1,3]dioxol-5-yl-5-ethoxy-phenoxy)-hexyl]-2-(2-carboxy-ethyl)-phenoxy]-butyric acid]	0.22
CC(=O)c1cc(OCCCCCCc2cccc(OCCCC(=O)O)c2CCC(=O)O)cc(-c2ccc3c(c2)OC(F)(F)O3)c1 [Example 69, 4-[3-{6-[3-Acetyl-5-(2,2-difluoro-benzo[1,3]dioxol-5-yl)-phenoxy]-hexyl}-2-(2-carboxy-ethyl)-phenoxy]-butyric acid]	0.9
COCc1cc(OCCCCCCc2cccc(OCCCC(=O)O)c2CCC(=O)O)cc(-c2cccc(OC)c2)c1 [Example 19, 4-{2-(2-Carboxy-ethyl)-3-[6-(3′-methoxy-5-methoxymethyl-biphenyl-3-yloxy)-hexyl]-phenoxy}-butyric acid]	9.44
O=C(O)CCCOc1cccc(CCCCCCOc2cc(OCc3ccccc3)cc(-c3ccc4c(c3)OCO4)c2)c1CCC(=O)O [Example 60, 4-[3-[6-(3-Benzo[1,3]dioxol-5-yl-5-benzyloxy-phenoxy)-hexyl]-2-(2-carboxy-ethyl)-phenoxy]-butyric acid]	4.59
CCOc1cc(OCCCCCCc2cccc(OCCCC(=O)O)c2CCC(=O)O)cc(-c2cncnc2)c1 [Example 53, 4-[2-(2-Carboxy-ethyl)-3-[6-(3-ethoxy-5-pyrimidin-5-yl-phenoxy)-hexyl]-phenoxy]-butyric acid]	79.3
COCc1cc(OCCCCCCc2cccc(OCCCC(=O)O)c2CCC(=O)O)cc(-c2ccc(Cl)cc2)c1 [Example 11, 4-{2-(2-Carboxy-ethyl)-3-[6-(4′-chloro-5-methoxymethyl-biphenyl-3-yloxy)-hexyl]-phenoxy}-butyric acid]	1.37
N#CCc1cc(OCCCCCCc2cccc(OCCCC(=O)O)c2CCC(=O)O)cc(-c2ccccc2)c1 [Example 42, 4-{2-(2-Carboxy-ethyl)-3-[6-(5-cyanomethyl-biphenyl-3-yloxy)-hexyl]-phenoxy}-butyric acid]	23
CN(C)Cc1cc(OCCCCCCc2cccc(OCCCC(=O)O)c2CCC(=O)O)cc(-c2ccc(F)cc2)c1 [Example 33, 4-{2-(2-Carboxy-ethyl)-3-[6-(5-dimethylaminomethyl-4′-fluoro-biphenyl-3-yloxy)-hexyl]-phenoxy}-butyric acid]	0.11
CCOCc1cc(OCCCCCCc2cccc(OCCCC(=O)O)c2CCC(=O)O)cc(-c2ccc(C(F)(F)F)cc2)c1 [Example 27, 4-{2-(2-Carboxy-ethyl)-3-[6-(5-ethoxymethyl-4′-trifluoromethyl-biphenyl-3-yloxy)-hexyl]-phenoxy}-butyric acid]	6.24
N#CCc1cc(OCCCCCCc2cccc(OCCCC(=O)O)c2CCC(=O)O)cc(-c2ccsc2)c1 [Example 41, 4-{2-(2-Carboxy-ethyl)-3-[6-(3-cyanomethyl-5-thiophen-3-yl-phenoxy)-hexyl]-phenoxy}-butyric acid]	15.2
O=C(O)CCCOc1cccc(CCCCCCOc2cc(OCc3ccccc3)cc(-c3ccccc3)c2)c1CCC(=O)O [Example 58, 4-[3-[6-(5-Benzyloxy-biphenyl-3-yloxy)-hexyl]-2-(2-carboxy-ethyl)-phenoxy]-butyric acid]	74.6
Cc1ccc(-c2cc(CN(C)C)cc(OCCCCCCc3cccc(OCCCC(=O)O)c3CCC(=O)O)c2)cc1F [Example 35, 4-{2-(2-Carboxy-ethyl)-3-[6-(5-dimethylaminomethyl-3′-fluoro-4′-methyl-biphenyl-3-yloxy)-hexyl]-phenoxy}-butyric acid]	0.16
CN(C)Cc1cc(OCCCCCCc2cccc(OCCCC(=O)O)c2CCC(=O)O)cc(-c2ccsc2)c1 [Example 31, 4-{2-(2-Carboxy-ethyl)-3-[6-(3-dimethylaminomethyl-5-thiophen-3-yl-phenoxy)-hexyl]-phenoxy}-butyric acid]	0.11
COCc1cc(OCCCCCCc2cccc(OCCCC(=O)O)c2CCC(=O)O)cc(-c2ccc3[nH]ccc3c2)c1 [Example 23, 4-[2-(2-Carboxy-ethyl)-3-{6-[3-(1H-indol-5-yl)-5-methoxymethyl-phenoxy]-hexyl}-phenoxy]-butyric acid]	30.2
COCc1cc(OCCCCCCc2cccc(OCCCC(=O)O)c2CCC(=O)O)cc(-c2ccccc2)c1 [Example 9, 4-{2-(2-Carboxy-ethyl)-3-[6-(5-methoxymethyl-biphenyl-3-yloxy)-hexyl]-phenoxy}-butyric acid]	1.93
CCOc1cc(OCCCCCCc2cccc(OCCCC(=O)O)c2CCC(=O)O)cc(-c2ccc(S(C)(=O)=O)cc2)c1 [Example 51, 4-[2-(2-Carboxy-ethyl)-3-[6-(5-ethoxy-4′-methanesulfonyl-biphenyl-3-yloxy)-hexyl]-phenoxy]-butyric acid]	2.1
CC(=O)c1cc(OCCCCCCc2cccc(OCCCC(=O)O)c2CCC(=O)O)cc(-c2ccccc2)c1 [Example 66, 4-[3-[6-(5-Acetyl-biphenyl-3-yloxy)-hexyl]-2-(2-carboxy-ethyl)-phenoxy]-butyric acid]	3.33
CCOc1cc(OCCCCCCc2cccc(OCCCC(=O)O)c2CCC(=O)O)cc(-c2ccc(F)c(F)c2)c1 [Example 50, 4-[2-(2-Carboxy-ethyl)-3-[6-(3′,4′-difluoro-5-ethoxy-biphenyl-3-yloxy)-hexyl]-phenoxy]-butyric acid]	8.27
COCc1cc(OCCCCCCc2cccc(OCCCC(=O)O)c2CCC(=O)O)cc(-c2cscc2C)c1 [Example 13, 4-(2-(2-Carboxy-ethyl)-3-{6-[3-methoxymethyl-5-(4-methyl-thiophen-3-yl)-phenoxy]-hexyl}-phenoxy)-butyric acid]	140
CCOc1cc(OCCCCCCc2cccc(OCCCC(=O)O)c2CCC(=O)O)cc(-c2ccc3cc[nH]c3c2)c1 [Example 55, 4-[2-(2-Carboxy-ethyl)-3-{6-[3-ethoxy-5-(1H-indol-6-yl)-phenoxy]-hexyl}-phenoxy]-butyric acid]	6.69
CC(=O)c1cc(OCCCCCCc2cccc(OCCCC(=O)O)c2CCC(=O)O)cc(-c2ccc3c(c2)OCO3)c1 [Example 64, 4-[3-[6-(3-Acetyl-5-benzo[1,3]dioxol-5-yl-phenoxy)-hexyl]-2-(2-carboxy-ethyl)-phenoxy]-butyric acid]	2.95
CCOCc1cc(OCCCCCCc2cccc(OCCCC(=O)O)c2CCC(=O)O)cc(-c2ccc3c(c2)OCO3)c1 [Example 25, 4-[3-[6-(3-Benzo[1,3]dioxol-5-yl-5-ethoxymethyl-phenoxy)-hexyl]-2-(2-carboxy-ethyl)-phenoxy]-butyric acid]	1.06
COCc1cc(OCCCCCCc2cccc(OCCCC(=O)O)c2CCC(=O)O)cc(-c2ccc(S(C)(=O)=O)cc2)c1 [Example 24, 4-[2-(2-Carboxy-ethyl)-3-[6-(4′-methanesulfonyl-5-methoxymethyl-biphenyl-3-yloxy)-hexyl]-phenoxy]-butyric acid]	6.83
